Assay results from US6340575B1, “Methods and compositions for treating abnormal cell growth related to unwanted guanine nucleotide exchange factor activity” (Onyx Pharmaceuticals, Inc., priority 1997, dated 2002).

T1: Type II Rac-GEF (Homo sapiens, UniProt Q8N5V2)
T1 construct: made in house; host or cells: E. coli BL21(DE3)pLysS, plasmid pET21a
T1 sequence (Q8N5V2 264-710 limits assumed): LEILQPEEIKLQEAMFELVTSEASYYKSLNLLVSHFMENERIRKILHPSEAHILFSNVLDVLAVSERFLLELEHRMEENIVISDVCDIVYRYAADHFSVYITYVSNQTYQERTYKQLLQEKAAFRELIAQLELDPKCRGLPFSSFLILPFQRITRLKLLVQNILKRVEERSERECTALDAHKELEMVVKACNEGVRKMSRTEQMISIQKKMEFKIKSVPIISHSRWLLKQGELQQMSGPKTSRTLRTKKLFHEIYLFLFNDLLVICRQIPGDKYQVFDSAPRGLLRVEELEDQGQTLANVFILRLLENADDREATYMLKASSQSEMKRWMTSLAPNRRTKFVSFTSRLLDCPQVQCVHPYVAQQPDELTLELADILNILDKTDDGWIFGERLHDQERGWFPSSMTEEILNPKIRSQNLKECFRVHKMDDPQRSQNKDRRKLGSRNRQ


Tests used:
[1] = molecular target: T2, 85 kD portion of human Tiam-1 protein (Homo sapiens, UniProt Q13009); assay: Tiam-1 Rac GEF activity assay (32P-GTP filter binding), 85 kD Tiam-1; type: biochemical; conditions: 85 kD Tiam-1 truncation; room temperature, 10 minutes
T2 construct: This prote in contained an intact PDZ domain, Dbl-homology (DH) domain and adjacent pleckstrin homology (PH) domain; made in house; host or cells: baculovirus-infected Sf9 (S. frugiperda) cells
T2 sequence (Q13009 837-1591 limits assumed): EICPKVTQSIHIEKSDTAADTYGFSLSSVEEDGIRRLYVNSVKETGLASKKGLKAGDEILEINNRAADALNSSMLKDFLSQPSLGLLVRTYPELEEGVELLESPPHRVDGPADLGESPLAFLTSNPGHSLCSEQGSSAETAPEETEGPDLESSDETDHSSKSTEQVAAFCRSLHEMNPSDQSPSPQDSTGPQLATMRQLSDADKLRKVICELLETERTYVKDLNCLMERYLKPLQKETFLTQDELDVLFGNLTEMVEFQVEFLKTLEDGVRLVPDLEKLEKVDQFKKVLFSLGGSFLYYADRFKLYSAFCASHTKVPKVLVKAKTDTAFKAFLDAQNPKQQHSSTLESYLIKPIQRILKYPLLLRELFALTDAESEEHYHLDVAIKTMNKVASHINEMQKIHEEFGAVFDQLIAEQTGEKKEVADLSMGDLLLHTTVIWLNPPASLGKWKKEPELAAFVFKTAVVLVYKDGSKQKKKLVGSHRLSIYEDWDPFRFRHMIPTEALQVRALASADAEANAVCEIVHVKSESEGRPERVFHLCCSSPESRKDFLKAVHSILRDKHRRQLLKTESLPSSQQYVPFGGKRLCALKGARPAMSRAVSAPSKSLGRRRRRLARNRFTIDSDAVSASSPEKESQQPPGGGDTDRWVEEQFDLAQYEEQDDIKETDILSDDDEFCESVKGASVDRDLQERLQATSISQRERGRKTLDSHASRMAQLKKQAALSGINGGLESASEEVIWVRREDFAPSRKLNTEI
Protocol: (§1) The GEF activity of the various Tiam-1 constructs described above was determined in the presence and absence of certain compounds. The following assay was utilized. Reactions were conducted at room temperature in Buffer A (20 mM Hepes pH7.3, 50 mM NaCl, 2 mM DTT, 2 mM MgCl2). All proteins and compounds were diluted to 4× their final concentrations in Buffer A (GTPases were diluted in Buffer A containing 1 μM GDP). To dilute Ascorbyl Stearate, Ascorbyl Palmitate, and Stearic Acid, 25 mM ETOH solutions were slowly added to Buffer A while vortexing vigorously. Other lipids were resuspended in aqueous solution with vortexing and bath sonication and then diluted into Buffer A. Reactions were prepared and at time 0, λ-^32P-GTP (DuPont NEN #NEG006H) was added to 4.5 nM, and after 10 minutes reactions were stopped by filtering onto nitrocellulose filters (Millipore #HAWP02500) and immediately washed with wash buffer (25 mM Tris 7.5, 100 mM NaCl, 30 mM MgCl2). Bound λ-^32P-GTP was measured, using standard techniques.
The 85 kD portion of human Tiam-1 protein was produced in insect cells and purified by affinity chromatography, as described above. This prote in contained an intact PDZ domain, Dbl-homology (DH) domain and adjacent pleckstrin homology (PH) domain (FIG. 3). […] Several other lipids were tested to determine the specificity of activation. […] As a control, experiments were run to determine if IP3, IP2, ascorbic acid, stearic acid and ascorbic acid with stearic acid were sufficient to activate the GEF activity of Tiam-1.

[2] = test system: ΔPH versions of Tiam-1; assay: Tiam-1 Rac GEF activity assay, truncations with deleted C-terminal PH domain; type: biochemical, human; conditions: truncations lacking half of the C-terminal PH domain and the rest of the C-terminus
Protocol: ΔPH versions of Tiam-1: The oligonucleotides 5′-[…]-3′ SEQ ID NO.24 and 5′-[…]-3′ SEQ ID NO.25 were used as linkers to recircularize Eco47III (4487) and XmaI-digested pAcC4-based expression vectors containing the 135 kD, 106 kD, 85 kD, and 66 kD versions of Tiam-1.
as §1, with “techniques. […]” for “techniques.”

[3] = molecular target: T3, 135 kD Tiam-1 truncation (Homo sapiens, UniProt Q13009); assay: Tiam-1 Rac GEF activity assay (32P-GTP filter binding), 135 kD Tiam-1; type: biochemical
T3 construct: made in house; host or cells: baculovirus-infected Sf9 (S. frugiperda) cells
T3 sequence (Q13009 402-1591 limits assumed): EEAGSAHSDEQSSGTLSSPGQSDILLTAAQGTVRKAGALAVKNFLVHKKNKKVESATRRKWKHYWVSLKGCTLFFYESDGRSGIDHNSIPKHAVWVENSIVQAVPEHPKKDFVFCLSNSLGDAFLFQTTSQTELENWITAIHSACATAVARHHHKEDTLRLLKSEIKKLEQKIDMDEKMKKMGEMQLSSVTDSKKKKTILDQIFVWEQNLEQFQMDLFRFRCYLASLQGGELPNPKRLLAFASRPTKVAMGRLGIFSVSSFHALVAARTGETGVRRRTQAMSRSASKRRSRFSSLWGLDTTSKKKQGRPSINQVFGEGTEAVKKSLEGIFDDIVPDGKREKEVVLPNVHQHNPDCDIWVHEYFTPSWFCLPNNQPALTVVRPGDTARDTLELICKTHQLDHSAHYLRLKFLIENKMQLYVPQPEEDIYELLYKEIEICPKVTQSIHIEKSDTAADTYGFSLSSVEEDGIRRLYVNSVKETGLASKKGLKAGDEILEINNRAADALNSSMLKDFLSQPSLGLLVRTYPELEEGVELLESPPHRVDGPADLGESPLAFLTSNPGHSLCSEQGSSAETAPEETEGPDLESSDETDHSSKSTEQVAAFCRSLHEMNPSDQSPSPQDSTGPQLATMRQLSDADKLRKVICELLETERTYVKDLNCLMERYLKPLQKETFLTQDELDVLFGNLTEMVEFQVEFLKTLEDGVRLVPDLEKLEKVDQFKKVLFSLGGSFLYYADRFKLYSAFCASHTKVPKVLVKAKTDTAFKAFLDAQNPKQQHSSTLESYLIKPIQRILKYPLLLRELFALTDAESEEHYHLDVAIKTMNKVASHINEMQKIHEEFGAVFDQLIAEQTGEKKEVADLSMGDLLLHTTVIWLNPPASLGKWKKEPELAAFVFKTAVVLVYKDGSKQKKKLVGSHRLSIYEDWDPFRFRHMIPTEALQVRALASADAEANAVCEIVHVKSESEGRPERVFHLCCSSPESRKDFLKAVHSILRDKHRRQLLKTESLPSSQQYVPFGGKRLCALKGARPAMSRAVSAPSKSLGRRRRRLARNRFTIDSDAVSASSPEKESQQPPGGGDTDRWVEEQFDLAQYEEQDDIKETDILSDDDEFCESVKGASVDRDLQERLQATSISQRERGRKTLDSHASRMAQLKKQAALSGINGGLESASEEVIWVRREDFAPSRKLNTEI
Protocol: as §1
(§2) It has been previously reported that Tiam-1 has GEE activity in the absence absence of lipids. See, Michiels, F., Habets, G. G., Stam, J. C., van der Kammen, R. A., and Collard, J. G. (1995) Nature 375,338-340. Those studies used a miouse version containing additional upstream sequences, including the N-terminal PH domain and the coiled-coil region. […]

[4] = test system: Type I Rac-GEF; assay: Guanine nucleotide exchange activity of Type I Rac-GEF with added PH domain ligand; type: biochemical, human; conditions: Type I form lacking the Dbl insert region
Protocol: (§3) Two Rac-GEFs were tested for guanine nucleotide activity. Firstly, a Glu-epitope tag (MEYMPMEIRHD) (SEQ ID NO:32) was engineered onto the carboxy-terminal 423 amino acids of the Rac GEF encoded by EST No. 167059 by introducing the oligos 5′-[…]-3′ SEQ ID NO.5 and the complementary 5′-[…]-3′ SEQ ID NO.6 into the XhoI/EcoRI sites of the clone. The protein encoded by this construct is referred to as Type I Rac-GEF.
(§4) Next, the sequence encoding the insertion in the Dbl homology region, as described in Example 1, was engineered into the open reading frame in the expression plasmid pET21a (Novagen). The protein encoded by this construct is referred to as Type II Rac-GEF. The resulting expression plasmids were introduced into E. coli strain BL21(DE3)pLysS (Novagen), and the epitope tagged protein expression was induced with IPTG. The expressed proteins were purified using a resin with the antibody to the Glu-epitope covalently attached. The resulting proteins were partially pure and were assayed for exchange activity on Rac1, RhoA and Cdc42. See, Hart, in U.S. Ser. No. 60/029,979, filed Nov. 6, 1996 now abandoned.

[5] = test system: Other truncations of Tiam-1, all containing the DH and PH domains; assay: Tiam-1 Rac GEF activity assay, other truncations containing the DH and PH domains; type: biochemical, human; conditions: other Tiam-1 truncations containing DH and PH domains
Protocol: as §1, §2

[6] = molecular target: T1, Type II Rac-GEF; assay: Guanine nucleotide exchange activity of Type II Rac-GEF with added PH domain ligand; type: biochemical; conditions: Type II form containing the Dbl insert region
Protocol: as §3, §4

[7] = test system: RhoA; assay: Exchange activity of Rac GEF on RhoA; type: biochemical; conditions: partially pure Glu-tagged protein
Protocol: as §3, §4

[8] = test system: Cdc42; assay: Exchange activity of Rac GEF on Cdc42; type: biochemical; conditions: partially pure Glu-tagged protein
Protocol: as §3, §4

[9] = test system: Rac1; assay: Exchange activity of Rac GEF on Rac1; type: biochemical; conditions: partially pure Glu-tagged protein
Protocol: as §3, §4

| stimulation of Tiam-1 GEF activity (nucleotide exchange on Rac 1) [1] | Molecule | further results |
| --- | --- | --- |
| significantly enhanced | phosphatidylinositol-4,5-bisphosphate |  |
| not to significantly stimulate | TRITON X-100 |  |
| incapable of stimulating GEF activity | CCCCCCCCCCCCCCCCCC(=O)O [stearic acid] |  |
| significantly enhanced | phosphatidylinositol-4-phosphate |  |
| not to significantly stimulate | O[C@@H](CS)[C@@H](O)CS [DTT] |  |
| significantly enhanced | CCCCCCCCCCCCCCCC(=O)OC[C@H](O)[C@H]1OC(=O)C(O)=C1O [Ascorbyl palmitate] |  |
| little or no effect | phosphatidylglycerol |  |
| little or no effect | phosphatidylinositol |  |
| weak effects | phosphatidylserine |  |
| not to significantly stimulate | CCCCCCCCO[C@@H]1O[C@H](CO)[C@@H](O)[C@H](O)[C@H]1O [nOG] |  |
| incapable of stimulating GEF activity | O=P(O)(O)O[C@@H]1[C@H](O)[C@H](O)[C@@H](OP(=O)(O)O)[C@H](OP(=O)(O)O)[C@H]1O [IP3] |  |
| incapable of stimulating GEF activity | O=C1O[C@H]([C@@H](O)CO)C(O)=C1O [ascorbic acid] |  |
| little or no effect | phosphatidyiholine |  |
| weak effects | phosphatidylinositol-3,4,5-trisphosphate |  |
| not to significantly stimulate | NP40 |  |
|  | Rac GEF: Glu-epitope tagged Type I and Type II Rac-GEF proteins expressed in E. coli, partially pure (protein) MEYMPMEIRHDLEILQPEEIKLQEAMFELVTSEASYYKSLNLLVSHFMENERIRKILHPSEAHILFSNVLDVLAVSERFLLELEHRMEENIVISDVCDIVYRYAADHFSVYITYVSNQTYQERTYKQLLQEKAAFRELIAQLELDPKCRGLPFSSFLILPFQRITRLKLLVQNILKRVEERSERECTALDAHKELEMVVKACNEGVRKMSRTEQMISIQKKMEFKIKSVPIISHSRWLLKQGELQQMSGPKTSRTLRTKKLFHEIYLFLFNDLLVICRQIPGDKYQVFDSAPRGLLRVEELEDQGQTLANVFILRLLENADDREATYMLKASSQSEMKRWMTSLAPNRRTKFVSFTSRLLDCPQVQCVHPYVAQQPDELTLELADILNILDKTDDGWIFGERLHDQERGWFPSSMTEEILNPKIRSQNLKECFRVHKMDDPQRSQNKDRRKLGSRNRQ | exchange activity on RhoA [7]: displays activity; exchange activity on Cdc42 [8]: displays activity; exchange activity on Rac1 [9]: primarily selective |

| Molecule | stimulation of Tiam-1 GEF activity (nucleotide exchange on Rac 1) [1] | further results |
| --- | --- | --- |
| CCCCCCCCCCCCCCCCCC(=O)OC[C@H](O)[C@H]1OC(=O)C(O)=C1O [ascorbyl stearate] | stimulated the rate of Tiam-1-mediated nucleotide exchange | activation of Tiam-1 GEF activity [2]: not activated; stimulation of Tiam-1 GEF activity towards Rac [3]: greatly stimulated; effect of addition on exchange activity of Type I Rac-GEF [4]: unaffected; stimulation of GEF activity on Rac 1 [5]: stimulated GEF activity; effect of addition on exchange activity of Type II Rac-GEF [6]: strongly stimulated |
| O=C(O)CCP(CCC(=O)O)CCC(=O)O [TCEP, Tris (2-carboxyethyl)phosphine] | not to significantly stimulate |  |
